Consider 8 molecules from patent publication US20040248879A1, “Salts of tricyclic inhibitors of poly(ADP-ribose) polymerases” (Agouron Pharmaceuticals, Inc., priority 2003, published 2004).

One data set is described as follows: Water Solubility Assay. The data set is classed as physicochemical. To be noted: Milli Q water, room temperature, stirred 3 hours, HPLC; for solubility at 3 h: water, thermodynamic from solid. The procedure:
The sample suspension was stirred at room temperature for 3 hours. The suspension was transferred into an eppendorf vial and centrifuged at 14000 rpm for 8 minutes. The supernant solution was then assayed by HPLC.
The suspension was stirred at room temperature for 3 hours and then centrifuged at 14000/min for 8 minutes. The supernant was diluted 10 times by Milli Q water. The final solution was then assayed by HPLC.
Accurately weigh out 2.5-3.0 mg of AG014447 reference standard into 10 ml volumetric flask, and then bring to volume with MeOH. Mix thoroughly.
Buffer: 25 mM ammonium phosphate buffer (pH 2.5)
Organic Modifier: Acetonitrile (ACN)
Column: Waters Symmetry C18, 4.6×150 mm, 5 μm;
The solubility of the sample is calculated by the equation below: […]
Where A is the peak area of the sample; As is the peak area of the standard; Cs is the concentration of the standard solution; D is the dilution factor. [drawing 2]

The subject of the next data set is A549 cells. The experiment in a line: Cytotoxicity Potentiation Assay. The data set is classed as cell-based. To be noted: test compound 0.4 μm, with topotecan, ratio of IC50 of topotecan alone to IC50 in combination.

Converted amounts (≈) assume the structure as drawn.

Method for A549 cells: Cytotoxicity Potentiation Assay: A549 cells (ATCC, Rockville, Md.) were seeded into 96-well cell culture plates (Falcon brand, Fisher Scientific, Pittsburgh, Pa.) 16 to 24 hours before experimental manipulation. Cells were then treated with a test compound (or a combination of test compounds where indicated) for either 3 days or 5 days, at a concentration of 0.4 μm. At the end of treatments, relative cell number was determined either by MTT assay or SRB assay. For the MTT assay, 0.2 μg/μl of MTT (3-(4,5-dimethylthiazol-2-yl)-2,5-diphenyltetrazolium bromide, Sigma Chemical Co., St. Louis, Mo.) was added to each well of a plate, and the plate was incubated in a cell-culture incubator for 4 hours. Metabolized MTT in each well was solubilized in 150 μl of DMSO (Sigma Chemical Co.) with shaking and quantified with a Wallac 1420 Victor plate reader (EG&G Wallac, Gaithersburg, Md.) at 540 nm. For the SRB assay, cells were fixed with 10% trichloroacetic acid (Sigma Chemical Co) for an hour at 4° C. […] The bound dye was measured photometrically with the Wallac Victor plate reader at 515 nm. The ratio of the OD (optical density) value of a compound-treated culture to the OD value of a mock-treated culture, expressed in percentage, was used to quantify the cytotoxicity of a compound. […] For the compounds of the invention, PF50 values were determined by testing with topotecan.

Take `CC(=O)O.CNCc1ccc(-c2[nH]c3cc(F)cc4c3c2CCNC4=O)cc1` [Acetate, 8-fluoro-2-(4-methylaminomethyl-phenyl)-1,3,4,5-tetrahydro-azepino[5,4,3-cd]indol-6-one Acetate]: in “Water Solubility Assay”, the solubility (commonly the dissolved amount per volume that the medium holds) at 3 h was 8800 µg/mL.

`CNCc1ccc(-c2[nH]c3cc(F)cc4c3c2CCNC4=O)cc1` [Free base, 8-fluoro-2-(4-methylaminomethyl-phenyl)-1,3,4,5-tetrahydro-azepino[5,4,3-cd]indol-6-one]: the Solubility (usually the concentration that dissolves in the medium under given conditions) in “Water Solubility Assay” is listed as 0.18 mg/mL (≈ 0.557 mM). In addition, the “Cytotoxicity Potentiation PF50” value in the data set on A549 cells turned out to be 2.4.

On to `CNCc1ccc(-c2[nH]c3cc(F)cc4c3c2CCNC4=O)cc1` [Gluconate, 8-Fluoro-2-(4-methylaminomethyl-phenyl)-1,3,4,5-tetrahydro-azepino[5,4,3-cd]indol-6-one Gluconate], for which the Solubility in the data set “Water Solubility Assay” is more than 128 mg/mL.

In turn, `CNCc1ccc(-c2[nH]c3cc(F)cc4c3c2CCNC4=O)cc1` [Glucuronate, 8-Fluoro-2-(4-methylaminomethyl-phenyl)-1,3,4,5-tetrahydro-azepino[5,4,3-cd]indol-6-one Glucuronate] registered a Solubility in “Water Solubility Assay” of 89 mg/mL (≈ 275 mM).

Turning to `CNCc1ccc(-c2[nH]c3cc(F)cc4c3c2CCNC4=O)cc1.Cl` [Hydrochloride, 8-Fluoro-2-(4-methylaminomethyl-phenyl)-1,3,4,5-tetrahydro-azepino[5,4,3-cd]indol-6-one Hydrochloride], in “Water Solubility Assay”, the solubility at 3 h is 1600 µg/mL.

With `CNCc1ccc(-c2[nH]c3cc(F)cc4c3c2CCNC4=O)cc1.CS(=O)(=O)O` [Mesylate, 8-Fluoro-2-(4-methylaminomethyl-phenyl)-1,3,4,5-tetrahydro-azepino[5,4,3-cd]indol-6-one Mesylate], in the data set “Water Solubility Assay”, the solubility at 3 h came to 15500 µg/mL.

Consider `CNCc1ccc(-c2[nH]c3cc(F)cc4c3c2CCNC4=O)cc1` [Phosphate, 8-Fluoro-2-(4-methylaminomethyl-phenyl)-1,3,4,5-tetrahydro-azepino[5,4,3-cd]indol-6-one Phosphate], for which, in the data set “Water Solubility Assay” (Phosphate), the Solubility was found to be 2.8 mg/mL.

As to `CNCc1ccc(-c2[nH]c3cc(F)cc4c3c2CCNC4=O)cc1.O=C(O)C(O)C(O)C(=O)O` [Tartrate, 8-Fluoro-2-(4-methylaminomethyl-phenyl)-1,3,4,5-tetrahydro-azepino[5,4,3-cd]indol-6-one Tartrate], the solubility at 3 h in “Water Solubility Assay” worked out at 1100 µg/mL.
